The subject of assay [1] is S. aureus 070. As to the kind of experiment: Experiment 5: fluorescent substrates in liquid medium, VITEK 2 reading. Particulars: substrate 200 mg/l, read over 19 hours. The assay is classed as cell-based, Staphylococcus aureus. How it is done: (§1) The media below were prepared in the base of the medium described in experiment 1, but in the absence of agar and in the presence of a fluorescent substrate instead of a chromogenic substrate. […] The various liquid media are distributed into the cupules of a support the size of a bank card, specific for the automated VITEK 2 (trademark) system of the company bioMérieux. […] The results, given in table 9 below, represent the incubation time, in hours, required to obtain the maximum level of fluorescence which can be measured by the device: […]

Assay [2] deals with S. aureus 276. The assay is described as above. The assay is classed as cell-based, Staphylococcus aureus. Particulars: substrate 200 mg/l, read over 19 hours. How it is done: as §1
The test system of assay [3] is S. epidermidis 009. The assay is described as above. It is filed as cell-based, Staphylococcus epidermidis. Particulars: substrate 200 mg/l, read over 19 hours. How it is done: as §1
Assay [4] deals with S. xylosus 008. The description is as above. Particulars: substrate 200 mg/l, read over 19 hours. It is filed as cell-based, Staphylococcus xylosus. How it is done: as §1
The subject of assay [5] is S. saprophyticus 030. The assay is described as above. The assay is classed as cell-based, Staphylococcus saprophyticus. As to conditions: substrate 200 mg/l, read over 19 hours. As to the method: as §1
Assay [6] deals with S. haemolyticus 131. Described as above. It is filed as cell-based, Staphylococcus haemolyticus. As to conditions: substrate 200 mg/l, read over 19 hours. As to the method: as §1
The subject of assay [7] is S. intermedius 075. The description is as above. The assay is classed as cell-based, Staphylococcus intermedius. Particulars: substrate 200 mg/l, read over 19 hours. How it is done: as §1
Assay [8] concerns S. aureus 276. As to the kind of experiment: Experiment 4: naphthol derivative substrates in API galleries, liquid medium. It is filed as cell-based, Staphylococcus aureus. Details: key to intensity of coloration (enzyme activity mark): the mark 0 corresponds to a negative reaction; marks 1, 2, 3 and 4 indicate intermediate levels of coloration and therefore of enzyme activity; marks 1, 2, 3 and 4 indicate intermediate levels of coloration and therefore of enzyme activity; marks 1, 2, 3 and 4 indicate intermediate levels of coloration and therefore of enzyme activity; marks 1, 2, 3 and 4 indicate intermediate levels of coloration and therefore of enzyme activity; the mark 5 to a reaction of maximum intensity. As to conditions: for intensity of coloration (enzyme activity mark): S. aureus 276, 4 hours of incubation at 37° C. As to the method:
(§2) The experiment below was carried out in a liquid medium and in the presence of naphthol derivative-based chromogenic substrates.
(§3) The medium and the substrates are distributed into API “galleries” (trademark) produced by the company bioMérieux at Marcy I'Etoile, France.
(§4) These “galleries” constitute a semi-quantitative method for searching for enzyme activities in microorganisms and make it possible to rapidly and simultaneously study nineteen enzyme activities. Each “gallery” comprises twenty cupules in which the solutions containing the enzyme substrates are distributed. The enzyme assays are carried out by distributing 65 μl of bacterial suspension at 5-6 McFarland into each cupule.
(§5) The intensity of coloration for each cupule is examined visually after 4 hours of incubation at 37° C. and after the addition of appropriate reagents: ZYM A (ref.: 70470) and ZYM B (ref.: 70480), which can be obtained from bioMérieux also mentioned above. The intensity of coloration will be directly proportional to the amount of substrate hydrolysed by the enzyme.
(§6) The values for the intensity of coloration are then marked on a results sheet according to the following classification: the mark 0 corresponds to a negative reaction, the mark 5 to a reaction of maximum intensity, marks 1, 2, 3 and 4 indicate intermediate levels of coloration and therefore of enzyme activity. More detailed information on this marking can be found in the API reading scale provided with the “galleries” of the same name.
(§7) The enzyme activity sought and the corresponding naphthol derivative substrates are described in table 6 below: […]

In assay [9] the test system is S. saprophyticus 009. The description is as above. As to conditions: 4 hours of incubation at 37° C. Details: key: the mark 0 corresponds to a negative reaction; marks 1, 2, 3 and 4 indicate intermediate levels of coloration and therefore of enzyme activity; marks 1, 2, 3 and 4 indicate intermediate levels of coloration and therefore of enzyme activity; marks 1, 2, 3 and 4 indicate intermediate levels of coloration and therefore of enzyme activity; marks 1, 2, 3 and 4 indicate intermediate levels of coloration and therefore of enzyme activity; the mark 5 to a reaction of maximum intensity. It is filed as cell-based, Staphylococcus saprophyticus. As to the method: as §2, §3, §4, §5, §6, §7

For assay [10], the system named is S. epidermidis 103. Described as above. On the set-up: key: the mark 0 corresponds to a negative reaction; marks 1, 2, 3 and 4 indicate intermediate levels of coloration and therefore of enzyme activity; marks 1, 2, 3 and 4 indicate intermediate levels of coloration and therefore of enzyme activity; marks 1, 2, 3 and 4 indicate intermediate levels of coloration and therefore of enzyme activity; marks 1, 2, 3 and 4 indicate intermediate levels of coloration and therefore of enzyme activity; the mark 5 to a reaction of maximum intensity. Particulars: 4 hours of incubation at 37° C. It is filed as cell-based, Staphylococcus epidermidis. How it is done:
as §2, §3, §4, §5, §6, §7

The subject of assay [11] is S. haemolyticus 137. The description is as above. The assay is classed as cell-based, Staphylococcus haemolyticus. On the set-up: key: the mark 0 corresponds to a negative reaction; marks 1, 2, 3 and 4 indicate intermediate levels of coloration and therefore of enzyme activity; marks 1, 2, 3 and 4 indicate intermediate levels of coloration and therefore of enzyme activity; marks 1, 2, 3 and 4 indicate intermediate levels of coloration and therefore of enzyme activity; marks 1, 2, 3 and 4 indicate intermediate levels of coloration and therefore of enzyme activity; the mark 5 to a reaction of maximum intensity. Particulars: 4 hours of incubation at 37° C. As to the method: as §2, §3, §4, §5, §6, §7

Assay [12] has as its system S. intermedius 075. The assay is described as above. The assay is classed as cell-based, Staphylococcus intermedius. On the set-up: key: the mark 0 corresponds to a negative reaction; marks 1, 2, 3 and 4 indicate intermediate levels of coloration and therefore of enzyme activity; marks 1, 2, 3 and 4 indicate intermediate levels of coloration and therefore of enzyme activity; marks 1, 2, 3 and 4 indicate intermediate levels of coloration and therefore of enzyme activity; marks 1, 2, 3 and 4 indicate intermediate levels of coloration and therefore of enzyme activity; the mark 5 to a reaction of maximum intensity. Particulars: 4 hours of incubation at 37° C. As to the method: as §2, §3, §4, §5, §6, §7

For `Cc1cc(=O)oc2cc(O[C@@H]3O[C@H](CO)[C@H](O)[C@H](O)[C@H]3O)ccc12` [4-MU-β-GAL, 4-methylumbelliferyl-β-D-galactoside], the “hours of incubation required to obtain the maximum level of fluorescence” value (“hours of incubation required” below) in assay [1] amounted to 3 h; in assay [2] it was 3 h; in [3] it was 4 h; in assay [4], 5 h; in assay [5], 12 h; in assay [6], 12 h. Further, the “hours of incubation required” value in assay [7] was determined as 2 h.

Take `Cc1cc(=O)oc2cc(O[C@@H]3O[C@H](CO)[C@@H](O)[C@H](O)[C@H]3O)ccc12` [4-MU-β-GLU, 4-methylumbelliferyl-β-D-glucoside]: the “hours of incubation required” value in assay [1] came out at 4 h; in assay [2], 6 h; in assay [3], 8 h; in assay [4], 9 h; in [5], 9 h; in [6], 7 h. Besides, in assay [7], the “hours of incubation required” value stood at 7 h.

As for `O=P(O)(O)Oc1ccc2ccccc2c1` [No 2, 2-naphthyl-phosphate], the “intensity of coloration (enzyme activity mark)” value (shortened to “intensity of coloration”) in [8] came out at 2; in assay [9] it was 1; in assay [10], 3; in assay [11] it was 0; in assay [12], 4.

For the compound `OC[C@H]1O[C@H](Oc2ccc3cc(Br)ccc3c2)[C@H](O)[C@@H](O)[C@H]1O` [No 3, 6-bromo-2-naphthyl-α-D-galactopyranoside], the “intensity of coloration” value in assay [8], in assay [9], in assay [10], in [11] and in assay [12] was 0 each time.

Regarding `OC[C@H]1O[C@@H](Oc2ccc3ccccc3c2)[C@H](O)[C@@H](O)[C@H]1O` [No 4, 2-naphthyl-β-D-galactopyranoside], the “intensity of coloration” value in assay [8] came out at 0; in assay [9], 3; in assay [10], 0; in [11] it was 0; in [12] it was 3.

As to `OC[C@H]1O[C@H](Oc2ccc3ccccc3c2)[C@H](O)[C@@H](O)[C@@H]1O` [No 6, 2-naphthyl-α-D-glucopyranoside], the “intensity of coloration” value in assay [8] is recorded as 5; in [9] it was 1; in [10] it was 1; in assay [11] it was 2; in assay [12], 1. In addition, the α-glucosidase activity result in [8] (Staphylococcus aureus strain, API gallery) is “strongly expressed”.

In the case of `OC[C@H]1O[C@@H](Oc2ccc3cc(Br)ccc3c2)[C@H](O)[C@@H](O)[C@@H]1O` [No 7, 6-bromo-2-naphtyl-β-D-glucopyranoside], the “intensity of coloration” value in [8], in [9], in [10], in assay [11] and in [12] was 0 throughout.

On to naphthol-β-D-glucuronide [No 5], for which the “intensity of coloration” value in [8], in [9], in [10], in assay [11] and in assay [12] was 0 in each case.
